Assays:
Assay type in all cases: cell-based
[1] = test system: HCV genotype 1b subgenomic replicon; assay: Anti-Hepatitis C replicon assay, genotype 1b (luciferase); conditions: Hepatitis C virus; luciferase activity measured 48 hours later; read-out: HCV Genotype 1B Replicon pEC50 (converted)
Outline: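 The 1b line is ET cells carrying the I389luc-ubi-neo/NS3-3′/ET replicon with adaptive mutations E1202G, T1280I and K1846T; the 1a line is an Apath replicon line modified with firefly luciferase. Cells were exposed 48 h to compound (final 0.03 pM–50 μM, 0.5-1% DMSO), read by Steady-Glo luciferase, and IC50 came from 10-point four-parameter logistic fits; cytotoxicity was read by CellTiter-Glo.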

STAT1 phosphorylation = STAT1 phosphorylation immunoblot in HCV replicon cells
Description: (§1) IFNα (100 U/ml) and DMSO were included as controls. The total cell lysates were analyzed on a 4-20% SDS-PAGE gradient gel and followed by immunoblotting using anti-phopho STAT1 antibody (Cell Signaling). The level of actin was monitored as a loading control. The bands were visualized by the alkaline phosphatase activity conjugated with the secondary antibody (Promega) using ProtoBlot II AP System™ (Promega).

[2] = test system: interferon stimulated genes (ISGs); assay: Expression of interferon stimulated genes in HCV replicon cells (real time RT-PCR)
Source text: The up-regulation of interferon stimulated genes upon treatment with Example 1 was monitored by quantitative real time RT-PCR using specific primers for each gene, as shown in FIG. 3. […] Total RNA was isolated using RNeasy 96 kit (Qiagen) and converted to cDNA using High Capacity cDNA reverse transcription kit (Applied Biosystems). For real time PCR, the cDNA was used for PCR reactions using TaqMan Fast Universal PCR master mix (Applied Biosystems) and specific primers (Applied Biosystems). As housekeeping genes, actin and GAPDH were used for normalization. Data was calculated by the ΔΔCt method and fold change determined compared to DMSO-treated control samples.

human JAK1 = molecular target: T1, human JAK1 (Homo sapiens, UniProt P23458); assay: JAK1 reconstitution in U4A and 2fGH cells (phosphor-STAT1 western blot, Taqman mRNA)
T1 construct: expressed in transfected cells; host or cells: U4A cells (JAK1-deficient derivative of the human fibroblast line 2fGH), transduced with a baculovirus mammalian expression system
Description: 2fGH and U4A cells were obtained from the Cleveland Clinic. 2fGH is a human fibroblast cell line and U4A cell line is a derivative 2fGH harboring a defect in JAK1 expression (Muller, et al., Nature 366, 129-135 (1993)). Green fluoroscent protein (GFP) or human JAK1 was transduced in U4A cells by baculovirus mammalian expression system. After 24 hours post transduction, the cells were treated with DMSO, Example 1 (10 μM), IFNα (100 U/ml), IFNβ (100 U/ml), or IFNγ (100 U/ml). Untransduced U4A cells and 2fGH cells were included as controls for 6 or 18 hours. The cells were harvested at indicated time points and used for detecting phosphor-STAT1 by western blot (FIG. 10, panel A) or for mRNA analysis by Taqman quantitation (FIG. 10, panel B).
as §1, with “The” for “IFNα (100 U/ml) and DMSO were included as controls. The”, “system” for “System™”
Gene expression was measured using TaqMan Fast Universal PCR Master Mix (Applied Biosystems) and gene specific probes and murine primers in HT7900 FAST System (Invitrogen). As housekeeping genes, actin and GAPDH were used for normalization. Data was calculated by the ΔΔCt method and fold change determined compared to non-treated control samples.

[3] = test system: respiratory syncytial virus (RSV); assay: RSV plaque assay on HEp-2 cells
Description: A broad spectrum of antiviral activity of Example 1 was accessed by testing it for potency against other viruses. (See FIG. 8). […] RSV (long form) was inoculated on the layer of HEp-2 cells at multiplicity of infection of <0.001. After 4 hour post infection, the inoculum was replaced with 0.3% agarose containing MEM and various concentration of Example 1 or IFNα. The cells were incubated for up to 5-6 days until the plaques were visible. The cells were then fixed with 3% formaldehyde and stained with neutral red for visualization.

[4] = test system: reconstructed human epidermis (RHE) keratinocytes; assay: JAK/STAT induction in reconstructed human epidermis (western blot, real-time PCR); conditions: 10 μM (IFN-alpha 100 U/mL), 6 and 72 hrs
Description: First, reconstructed human epidermis (“RHE”) consisting of cultured human keratinocyte cells were incubated in triplicate with media containing either the media alone, media+0.1% DMSO, media containing 10 μM of several putative JAK/STAT activator compounds described herein in Tables 1 and 2 (Example 1, Example 2, Example 11, and compound no. 89 (as a negative control)), or media containing 100 U/mL of a positive control Interferon-alpha (IFN-alpha) recombinant protein at 37° C. in a humidified atmosphere containing 5% CO2, for 6 and 72 hours.
At the end of the incubation period, the RHE tissues were cut into two sections. One section was ¼ of the total size and the second section was […].

T1 sequence (P23458 whole entry): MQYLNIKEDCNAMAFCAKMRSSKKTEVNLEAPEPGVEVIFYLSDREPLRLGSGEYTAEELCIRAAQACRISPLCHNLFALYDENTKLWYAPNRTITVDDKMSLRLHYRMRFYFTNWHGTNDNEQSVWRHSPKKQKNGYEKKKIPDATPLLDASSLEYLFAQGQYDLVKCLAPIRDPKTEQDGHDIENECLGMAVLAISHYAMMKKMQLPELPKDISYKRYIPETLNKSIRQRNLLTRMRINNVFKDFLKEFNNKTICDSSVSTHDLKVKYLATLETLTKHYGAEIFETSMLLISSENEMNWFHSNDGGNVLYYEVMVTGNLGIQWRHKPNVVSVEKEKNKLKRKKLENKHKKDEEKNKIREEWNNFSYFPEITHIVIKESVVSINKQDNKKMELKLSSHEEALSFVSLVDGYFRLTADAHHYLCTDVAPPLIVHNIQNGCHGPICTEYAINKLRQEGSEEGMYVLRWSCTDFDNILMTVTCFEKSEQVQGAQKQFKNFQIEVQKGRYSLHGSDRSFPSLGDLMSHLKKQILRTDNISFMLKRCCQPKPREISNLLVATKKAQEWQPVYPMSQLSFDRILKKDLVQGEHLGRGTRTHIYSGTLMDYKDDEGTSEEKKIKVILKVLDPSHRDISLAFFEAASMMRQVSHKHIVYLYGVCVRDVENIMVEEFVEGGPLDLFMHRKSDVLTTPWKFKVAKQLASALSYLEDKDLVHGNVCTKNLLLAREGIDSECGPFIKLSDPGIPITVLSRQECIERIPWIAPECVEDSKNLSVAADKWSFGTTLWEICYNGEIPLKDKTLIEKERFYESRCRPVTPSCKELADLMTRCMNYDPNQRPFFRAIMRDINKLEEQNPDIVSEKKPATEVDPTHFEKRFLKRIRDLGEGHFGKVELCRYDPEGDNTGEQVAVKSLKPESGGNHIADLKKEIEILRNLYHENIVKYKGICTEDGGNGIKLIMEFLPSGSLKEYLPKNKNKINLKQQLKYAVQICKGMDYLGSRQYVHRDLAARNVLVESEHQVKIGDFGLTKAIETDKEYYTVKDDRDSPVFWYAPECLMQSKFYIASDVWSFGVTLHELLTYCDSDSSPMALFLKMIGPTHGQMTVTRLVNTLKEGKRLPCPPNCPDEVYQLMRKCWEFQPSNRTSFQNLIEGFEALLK

Question: What does the source list for `FC(F)(F)c1cc(C(F)(F)F)c2ccc3nc(-c4nnco4)cn3c2n1` [Compound 1, 2-[2,4-bis(trifluoromethyl)imidazo[1,2-a]1,8-naphthyridin-8-yl]-1,3,4-oxadiazole]?
Answer: EC50 [1]: 200 nM; time up to which phosphor-STAT1 status sustained (STAT1 phosphorylation; 2 uM): up to 24 h; STAT1 phosphorylation (STAT1 phosphorylation; Example 1 2 uM, IFNα 100 U/ml, 1 h, 6 h, 24 h): induced STAT1 phosphorylation; induction of IFNα and β mRNA (IFNA1, IFNA2, IFNB1) ([2]; 2 μM): no induction; induction of ISGs (ISG15, Mx1, OAS1, OAS2, CXCL10, IFIH1, STAT2) ([2]; 2 μM, time course 1.5-48 h): induction of various known ISGs; time of maximum induction of ISGs ([2]; Example 1 2 μM, IFNα 100 U/ml): 8 h; CXCL9 expression in U4A cells transduced with JAK1 (human JAK1; 10 μM): marked up-regulation; OAS2 mRNA in parental cell line (2fGH) (human JAK1; 10 μM): marked increase; activation of STAT1 in U4A cells transduced with JAK1 (human JAK1; Example 1 10 μM, IFNα 100 U/ml): activation of STAT1 was observed; p-STAT1 in U4A cells (JAK1 deficient) transduced with GFP (human JAK1; Example 1 10 μM, IFNα 100 U/ml): not present; RSV plaques ([3]; 1 μM, compared to DMSO-only): reduced the number of plaques; RSV plaques ([3]; 5 μM): no visible clear plaque; Stat1 phosphorylation (western blot) [4]: Stat1 phosphorylation

Reference: US20140249143A1, “Compounds And Methods For Enhancing Innate Immune Responses” (GlaxoSmithKline LLC, priority 2011, published 2014)
